Measurements from ChEMBL document CHEMBL3596148, “Meridianin derivatives as potent Dyrk1A inhibitors and neuroprotective agents” (Bioorg Med Chem Lett, 2015).

Assays:
[1] = system: SH-SY5Y; assay: Neuroprotective activity against glutamate-induced neurotoxicity in human SH-SY5Y cells assessed as cell viability at 10 uM incubated for 30 mins prior to glutamate challenge measured after 24 hrs by MTT assay (reference value: 73.8 +/- 4.5%); format: functional; conditions: read-out: Activity
[2] = biological target: Cyclin-dependent kinase 2 (Homo sapiens) (UniProt P24941); assay: Inhibition of CDK2 (unknown origin) at 0.5 uM relative to control
[3] = biological target: T1, Inhibitor of nuclear factor kappa-B kinase subunit beta (Homo sapiens) (UniProt O14920); assay: Inhibition of IKKbeta (unknown origin) at 0.5 uM relative to control
T1 sequence (whole entry): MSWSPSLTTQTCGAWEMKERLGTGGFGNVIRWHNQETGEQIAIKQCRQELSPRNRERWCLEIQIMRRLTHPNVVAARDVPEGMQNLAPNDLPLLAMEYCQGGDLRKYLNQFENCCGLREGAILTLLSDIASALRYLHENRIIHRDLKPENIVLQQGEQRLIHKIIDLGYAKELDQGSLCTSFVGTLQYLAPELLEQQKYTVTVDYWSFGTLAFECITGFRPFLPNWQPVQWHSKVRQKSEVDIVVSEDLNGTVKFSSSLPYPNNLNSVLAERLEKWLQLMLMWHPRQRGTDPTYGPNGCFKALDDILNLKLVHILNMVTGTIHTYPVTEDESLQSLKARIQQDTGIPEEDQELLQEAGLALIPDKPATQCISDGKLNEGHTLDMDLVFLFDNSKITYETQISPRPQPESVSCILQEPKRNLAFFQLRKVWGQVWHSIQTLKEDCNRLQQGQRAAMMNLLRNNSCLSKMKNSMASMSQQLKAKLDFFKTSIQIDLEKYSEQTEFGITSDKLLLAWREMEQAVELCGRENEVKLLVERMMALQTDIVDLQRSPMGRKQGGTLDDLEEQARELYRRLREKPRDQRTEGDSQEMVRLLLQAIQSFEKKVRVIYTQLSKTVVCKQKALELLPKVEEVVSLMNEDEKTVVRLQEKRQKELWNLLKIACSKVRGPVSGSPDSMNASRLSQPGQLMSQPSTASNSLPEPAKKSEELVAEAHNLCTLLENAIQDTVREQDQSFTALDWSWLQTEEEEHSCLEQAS

inhibition [2]: 0%
inhibition [3]: 7.8%
Compound: Nc1nccc(-c2cn(C(=O)N3CCOCC3)c3ccc(Br)cc23)n1
viability at 10 µM [1]: 82.5%
